The assay deals with T1, histamine H4 receptor (Homo sapiens, UniProt Q9H3N8).
T1 construct: expressed in transfected cells; host or cells: HEK293SFM cells (membrane preparation)
T1 sequence (Q9H3N8 whole entry): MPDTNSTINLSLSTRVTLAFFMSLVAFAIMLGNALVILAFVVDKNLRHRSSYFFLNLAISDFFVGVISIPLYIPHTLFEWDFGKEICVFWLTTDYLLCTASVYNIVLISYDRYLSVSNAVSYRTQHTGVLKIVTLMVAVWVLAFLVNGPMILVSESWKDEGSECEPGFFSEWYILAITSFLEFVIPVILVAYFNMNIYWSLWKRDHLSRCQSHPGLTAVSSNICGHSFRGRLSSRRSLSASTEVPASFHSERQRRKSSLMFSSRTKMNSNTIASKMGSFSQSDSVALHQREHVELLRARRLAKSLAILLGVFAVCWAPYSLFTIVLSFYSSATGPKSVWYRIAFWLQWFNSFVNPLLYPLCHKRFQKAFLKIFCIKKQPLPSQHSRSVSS
The assay can be described thus: H4 Membrane Binding Assay (3H-Histamine displacement). As to conditions: membranes of recombinant HEK293SFM cells, 10 nM 3H-Histamine, 1.5 hr at room temperature. As for the experimental part:
Recombinant HEK293SFM cells expressing human H1, H2, H3, H4 or mouse H4 were harvested (Packard Filtermate Harvester) in ice-cold Tris-HCl, (50 mM, pH 7.5, Sigma) with protease inhibitors (Roche) and homogenized with a Polytron homogenizer. The homogenate was centrifuged for 5 minutes at 1000 g to remove nuclei and unbroken cells. The supernatant was centrifuged at 50000 g for 30 minutes, and the resulting pellet was re-suspended in ice-cold Tris-HCl (50 mM, pH 7.5). […] Nonspecific binding was determined by inclusion of 1000× unlabeled ligands. The bound radioactivity was separated by filtration through polyethyleneimine-treated GF/B filters (Perkin Elmer). The filters were washed eight times with ice-cold Tris-HCl (50 mM, pH 7.5), and radioactivity retained on the filters was measured by liquid scintillation counting. The binding data were evaluated with Prism.
Consider `COC(=O)c1cccc(COc2cccc(C(C)NC(=O)c3ccc4c(N5CCN(C)CC5)nc(N)nc4c3)c2)c1` (stereo not shown) [Example 200, Methyl 3-({3-[1-({[2-amino-4-(4-methylpiperazin-1-yl)quinazolin-7-yl]carbonyl}amino)ethyl]phenoxy}methyl)benzoate], for which the IC50 stood at 7.1 nM.

`CN1CCN(c2cc(-c3ccc4c(c3)CN(C(=O)OC3CCN(C(=O)NC5CCCC5)CC3)CC4)nc(N)n2)CC1` [Example 70, 1-[(Cyclopentylamino)carbonyl]piperidin-4-yl 7-[2-amino-6-(4-methylpiperazin-1-yl)pyrimidin-4-yl]-3,4-dihydroisoquinoline-2(1H)-carboxylate]: the IC50 worked out at 361 nM.

Regarding `CN1CCN(c2nc(N)nc3cc(C(=O)NC(Cc4ccc5c(c4)OC(F)(F)O5)C(=O)N(C)C)ccc23)CC1` (stereo not shown) [Example 145, 2-Amino-N-[1-[(2,2-difluoro-1,3-benzodioxol-5-yl)methyl]-2-(dimethylamino)-2-oxoethyl]-4-(4-methylpiperazin-1-yl)quinazoline-7-carboxamide], the IC50 amounted to 34 nM.

In the case of `CN1CCN(c2nc(N)nc3cc(C(=O)N[C@@H](Cc4ccc(-c5ccc(C#N)cn5)cc4)C(=O)N(C)C)ccc23)CC1` [Example 155, 2-Amino-N-[(1S)-1-[4-(5-cyanopyridin-2-yl)benzyl]-2-(dimethylamino)-2-oxoethyl]-4-(4-methylpiperazin-1-yl)quinazoline-7-carboxamide], the half-maximal inhibitory concentration (IC50) turned out to be 55 nM.

Take `CN1CCN(c2cc(-c3ccc4c(c3)CN(C(=O)CC3CCN(C(=O)C5CC5)CC3)CC4)nc(N)n2)CC1` [Example 72, 4-(2-{[1-(Cyclopropylcarbonyl)piperidin-4-yl]acetyl}-1,2,3,4-tetrahydroisoquinolin-7-yl)-6-(4-methylpiperazin-1-yl)pyrimidin-2-amine]: the IC50 is 419 nM.

For the molecule `CC(C)OC(=O)N1CCC(CC(=O)N2CCc3ccc(-c4cc(N5CCN(C)CC5)nc(N)n4)cc3C2)C1` (stereo not shown) [Example 119, Isopropyl 3-{2-[7-[2-amino-6-(4-methylpiperazin-1-yl)pyrimidin-4-yl]-3,4-dihydroisoquinolin-2(1H)-yl]-2-oxoethyl}pyrrolidine-1-carboxylate], the IC50 came out at 70 nM.

With `CN1CCN(c2cc(-c3ccc4c(c3)CN(C(=O)N[C@@H]3CCOC3)CC4)nc(N)n2)CC1` [Example 84, 7-[2-Amino-6-(4-methylpiperazin-1-yl)pyrimidin-4-yl]-N-[(3R)-tetrahydrofuran-3-yl]-3,4-dihydroisoquinoline-2(1H)-carboxamide], the IC50 turned out to be 744 nM.

In the case of `CN1CCN(c2cc(-c3ccc4c(c3)CN(C(=O)Nc3ccc(-c5ccccc5)cn3)CC4)nc(N)n2)CC1` [Example 91, 7-[2-Amino-6-(4-methylpiperazin-1-yl)pyrimidin-4-yl]-N-(5-phenylpyridin-2-yl)-3,4-dihydroisoquinoline-2(1H)-carboxamide], the IC50 was 63 nM.

On to `CN1CCN(c2cc(-c3ccc4c(c3)CN(C(=O)CC3CCCC3)CC4)nc(N)n2)CC1` [Example 41, 4-[2-(Cyclopentylacetyl)-1,2,3,4-tetrahydroisoquinolin-7-yl]-6-(4-methylpiperazin-1-yl)pyrimidin-2-amine], for which the IC50 is 28 nM.

`CC(NC(=O)c1ccc2c(N3CCN(C)CC3)nc(N)nc2c1)c1ccc(Oc2ccccc2)cc1` (stereo not shown) [Example 29, 2-Amino-4-(4-methylpiperazin-1-yl)-N-[1-(4-henoxyphenyl)ethyl]quinazoline-7-carboxamide]: the IC50 was found to be 157 nM.

Regarding `CC(NC(=O)c1ccc2c(N3CCN(C)CC3)nc(N)nc2c1)c1ccc(Br)cc1` (stereo not shown) [Example 31, 2-Amino-N-[1-(4-bromophenyl)ethyl]-4-(4-methylpiperazin-1-yl)quinazoline-7-carboxamide], the IC50 is 355 nM.

Regarding `CN1CCN(c2cc(-c3ccc4c(c3)CN(C(=O)OC3CCOC3)CC4)nc(N)n2)CC1` (stereo not shown) [Example 79, Tetrahydrofuran-3-yl 7-[2-amino-6-(4-methylpiperazin-1-yl)pyrimidin-4-yl]-3,4-dihydroisoquinoline-2(1H)-carboxylate], the IC50 came out at 364 nM.

For `CN1CCN(c2cc(-c3ccc4c(c3)CN(C(=O)CCc3ccccc3)CC4)nc(N)n2)CC1` [Example 101, 4-(4-Methylpiperazin-1-yl)-6-[2-(3-phenylpropanoyl)-1,2,3,4-tetrahydroisoquinolin-7-yl]pyrimidin-2-amine], the IC50 was 99 nM.

Take `COC(=O)c1cccc(COc2cccc3c2CCN(C(=O)c2ccc4c(N5CCN(C)CC5)nc(N)nc4c2)C3)c1` [Example 209, Methyl 3-((2-(2-amino-4-(4-methylpiperazin-1-yl)quinazoline-7-carbonyl)-1,2,3,4-tetrahydroisoquinolin-5-yloxy)methyl)benzoate]: the IC50 turned out to be 36 nM.

With `CO[C@@H]1Cc2ccccc2[C@@H]1NC(=O)N1CCc2ccc(-c3cc(N4CCN(C)CC4)nc(N)n3)cc2C1` [Example 57, 7-[2-Amino-6-(4-methylpiperazin-1-yl)pyrimidin-4-yl]-N-[(1S,2R)-2-methoxy-2,3-dihydro-1H-inden-1-yl]-3,4-dihydroisoquinoline-2(1H)-carboxamide], the IC50 came out at 93 nM.

In the case of `CC(C)[C@@H](C)NC(=O)N1CCc2ccc(-c3cc(N4CCN(C)CC4)nc(N)n3)cc2C1` [Example 98, 7-[2-Amino-6-(4-methylpiperazin-1-yl)pyrimidin-4-yl]-N-[(1R)-1,2-dimethylpropyl]-3,4-dihydroisoquinoline-2(1H)-carboxamide], the IC50 was found to be 61 nM.

As to `CN1CCN(c2nc(N)nc3cc(C(=O)NC(Cc4cccc(Oc5cc(C#N)ccc5C(F)(F)F)c4)C(=O)N(C)C)ccc23)CC1` (stereo not shown) [Example 171, 2-Amino-N-[1-{3-[5-cyano-2-(trifluoromethyl)phenoxy]benzyl}-2-(dimethylamino)-2-oxoethyl]-4-(4-methylpiperazin-1-yl)quinazoline-7-carboxamide], the IC50 was 13 nM.

For `Cc1cccnc1N1CCC(NC(=O)N2CCc3ccc(-c4cc(N5CCN(C)CC5)nc(N)n4)cc3C2)CC1` [Example 42, 7-[2-Amino-6-(4-methylpiperazin-1-yl)pyrimidin-4-yl]-N-[1-(3-methylpyridin-2-yl)piperidin-4-yl]-3,4-dihydroisoquinoline-2(1H)-carboxamide], the IC50 was determined as 103 nM.

Consider `CN1CCN(c2nc(N)nc3cc(C(=O)NC(Cc4ccc(C(F)(F)F)cc4)C(=O)N(C)C)ccc23)CC1` (stereo not shown) [Example 150, 2-Amino-N-{2-(dimethylamino)-2-oxo-1-[4-(trifluoromethyl)benzyl]ethyl}-4-(4-methylpiperazin-1-yl)quinazoline-7-carboxamide], for which the IC50 is 44 nM.

In the case of `CN1CCN(c2cc(-c3ccc4c(c3)CN(c3ccc(C#N)cn3)CC4)nc(N)n2)CC1` [Example 16, 6-{7-[2-Amino-6-(4-methylpiperazin-1-yl)pyrimidin-4-yl]-3,4-dihydroisoquinolin-2(1H)-yl}nicotinonitrile], the IC50 was found to be 48 nM.

In the case of `CN1CCN(c2cc(-c3ccc4c(c3)CNCC4)nc(N)n2)CC1` [Example 1, 4-(4-Methylpiperazin-1-yl)-6-(1,2,3,4-tetrahydroisoquinolin-7-yl)pyrimidin-2-amine], the IC50 is 198 nM.

For `CN1CCN(c2cc(-c3ccc4c(c3)CN(C(=O)OC3CCCC3)CC4)nc(N)n2)CC1` [Example 7, Cyclopentyl 7-[2-amino-6-(4-methylpiperazin-1-yl)pyrimidin-4-yl]-3,4-dihydroisoquinoline-2(1H)-carboxylate], the IC50 was 43.3 nM.

For the molecule `CO[C@H]1CC[C@H](NC(=O)N2CCc3ccc(-c4cc(N5CCN(C)CC5)nc(N)n4)cc3C2)CC1` [Example 56, 7-[2-Amino-6-(4-methylpiperazin-1-yl)pyrimidin-4-yl]-N-(trans-4-methoxycyclohexyl)-3,4-dihydroisoquinoline-2(1H)-carboxamide], the IC50 is 210 nM.

Turning to `COC(=O)c1ccc(Oc2cccc(CC(NC(=O)c3ccc4c(N5CCN(C)CC5)nc(N)nc4c3)C(=O)N(C)C)c2)cc1` (stereo not shown) [Example 169, Methyl 4-{3-[2-({[2-amino-4-(4-methylpiperazin-1-yl)quinazolin-7-yl]carbonyl}amino)-3-(dimethylamino)-3-oxopropyl]phenoxy}benzoate], the half-maximal inhibitory concentration (IC50) came to 23 nM.

Regarding `CCOC(=O)N1CCC(NC(=O)N2CCc3ccc(-c4cc(N5CCN(C)CC5)nc(N)n4)cc3C2)CC1` [Example 52, Ethyl 4-({[7-[2-amino-6-(4-methylpiperazin-1-yl)pyrimidin-4-yl]-3,4-dihydroisoquinolin-2(1H)-yl]carbonyl}amino)piperidine-1-carboxylate], the IC50 is 130 nM.

As to `CN1CCN(c2nc(N)nc3cc(C(=O)NC(Cc4ccc(-c5ccccc5)cc4)c4nccs4)ccc23)CC1` (stereo not shown) [Example 151, 2-amino-N-[2-biphenyl-4-yl-1-(1,3-thiazol-2-yl)ethyl]-4-(4-methylpiperazin-1-yl)quinazoline-7-carboxamide], the IC50 came out at 69 nM.

Consider `CN1CCN(c2cc(-c3ccc4c(c3)CN(C(=O)Nc3ccccc3F)CC4)nc(N)n2)CC1` [Example 99, 7-[2-Amino-6-(4-methylpiperazin-1-yl)pyrimidin-4-yl]-N-(2-fluorophenyl)-3,4-dihydroisoquinoline-2(1H)-carboxamide], for which the IC50 came to 31 nM.

Regarding `CC(C(=O)N1CCc2ccc(-c3cc(N4CCN(C)CC4)nc(N)n3)cc2C1)C1CCCCC1` (stereo not shown) [Example 102, 4-[2-(2-Cyclohexylpropanoyl)-1,2,3,4-tetrahydroisoquinolin-7-yl]-6-(4-methylpiperazin-1-yl)pyrimidin-2-amine], the IC50 turned out to be 83 nM.

The values above are taken from patent US8481732B2 (Incyte Corporation, priority 2009, dated 2013).
